The target of one assay is T1, CYP2C9 (Homo sapiens, UniProt P11712).
T1 construct: Human liver microsome (20 mg protein/mL, 5 μL, Xenotech LLC, purchased from Lenexa Kans.); tissue Xenotech LLC; host or cells: human liver microsomes
Description: CYP inhibitory test using human liver microsome. The settings on record: model substrate diclofenac, 37° C., 10 min, read-out: CYP2C9 inhibition, IC50. It counts as in vitro ADME. As for the experimental part:
Experimental Example 2 CYP Inhibitory Test Using Human Liver Microsome
Human liver microsome (20 mg protein/mL, 5 μL, Xenotech LLC, purchased from Lenexa Kans.) was suspended in 100 mM potassium phosphate buffer (70 μL, pH 7.4), mixed with a solution (0.5 μL) of the Example compound dissolved in DMSO and preincubated at 37° C. for 5 min. NADPH producing system coenzyme solution (β-nicotinamide adenine dinucleotide phosphate: 5.2 mM, D-glucose-6-phosphate: 13.2 mM, magnesium chloride: 13.2 mM, glucose-6-phosphate dehydrogenase: 1.8 U/mL) 25 μL, and a model substrate (CYP3A4: midazolam 1 mM, CYP2D6: bufuralol 1 mM, CYP2C9: diclofenac 2 mM) 0.5 μL dissolved in DMSO were added to start the reaction. After incubation at 37° C. for 10 min., acetonitrile (200 μL) containing an internal standard substance (propranolol 1 μM) was added and the mixture was centrifuged (room temperature, 3000 rpm, 20 min). The amount of the metabolite produced from each model substrate in the supernatant was measured by high performance liquid chromatography/mass spectrometry (LC/MS/MS) and each CYP enzyme activity was determined. The concentration showing 50% inhibition (IC50) was calculated relative to the enzyme activity without addition of Example compound (DMSO 0.5 μL added) as 100%.
As a comparative example, the CYP enzyme activity of the compound described in JP-A-3-135917 was examined by determining the IC50 value in the same manner as above.

Another assay deals with T2, human URAT1 (Homo sapiens, UniProt Q96S37).
T2 construct: Human URAT1 full length cDNA was subcloned to expression vector pcDNA3.1; expressed in transfected cells; host or cells: HEK293 cells (pcDNA3.1, geneticin-selected)
T2 sequence (Q96S37 1-553): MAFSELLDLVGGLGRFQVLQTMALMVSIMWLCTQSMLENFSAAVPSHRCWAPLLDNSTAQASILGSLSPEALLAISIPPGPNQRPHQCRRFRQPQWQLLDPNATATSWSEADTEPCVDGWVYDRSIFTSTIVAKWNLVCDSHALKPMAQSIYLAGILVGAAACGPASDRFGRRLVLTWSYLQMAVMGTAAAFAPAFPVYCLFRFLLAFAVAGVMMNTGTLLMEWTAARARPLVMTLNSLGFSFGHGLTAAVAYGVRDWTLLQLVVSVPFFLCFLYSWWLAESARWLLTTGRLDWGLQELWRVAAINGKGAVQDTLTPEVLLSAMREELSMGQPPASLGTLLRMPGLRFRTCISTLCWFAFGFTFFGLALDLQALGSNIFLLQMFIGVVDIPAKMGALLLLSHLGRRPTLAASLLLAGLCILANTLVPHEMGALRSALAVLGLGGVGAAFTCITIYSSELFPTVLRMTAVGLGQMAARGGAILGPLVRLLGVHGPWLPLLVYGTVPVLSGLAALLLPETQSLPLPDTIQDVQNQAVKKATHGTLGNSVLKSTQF
Description: Uric acid transport inhibitory test using human URAT1-expressing cells. It counts as cell-based. The settings on record: human URAT1-expressing HEK293 cells, 14C-uric acid 50 μM, uptake 5 min, room temperature; read-out: hURAT1 IC50. The gist of the method:
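HEK293 cells stably transfected with full-length human URAT1; mock-transfected HEK293 served as background. Uptake of 14C-uric acid (50 μM final) over 5 min at room temperature in Na-gluconate-substituted HBSS with compound, read by scintillation. IC50 derived from URAT1-specific transport (URAT1 minus mock, DMSO = 100%).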

T1 sequence (P11712 whole entry): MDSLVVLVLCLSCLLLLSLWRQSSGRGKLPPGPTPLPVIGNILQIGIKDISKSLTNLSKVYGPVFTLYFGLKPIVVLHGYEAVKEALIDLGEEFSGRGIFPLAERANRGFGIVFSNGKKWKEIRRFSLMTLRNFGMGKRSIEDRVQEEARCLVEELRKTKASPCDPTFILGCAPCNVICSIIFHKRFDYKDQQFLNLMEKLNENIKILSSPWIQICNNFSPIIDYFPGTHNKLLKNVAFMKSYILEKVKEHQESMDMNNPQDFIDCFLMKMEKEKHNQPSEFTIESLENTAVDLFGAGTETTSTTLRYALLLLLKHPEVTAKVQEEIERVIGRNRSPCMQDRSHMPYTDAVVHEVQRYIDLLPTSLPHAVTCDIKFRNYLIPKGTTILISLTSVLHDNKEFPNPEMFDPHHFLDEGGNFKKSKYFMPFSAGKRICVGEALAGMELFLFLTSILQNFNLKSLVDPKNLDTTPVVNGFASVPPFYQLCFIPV

For the molecule `Cc1cccc2c1OC(c1ccccc1)CN2C(=O)/C=C/C(=O)O` (stereo not shown) [Example 55, (E)-4-(8-methyl-2-phenyl-2,3-dihydrobenzo[1,4]oxazin-4-yl)-4-oxo-2-butenoic acid], the figures for the IC50 at CYP2C9 and at human URAT1 were > 50 µM and ≥ 3 µM, respectively.
On the same counts, the results for `Cc1ccc2c(c1)OC(C(C)C)CN2C(=O)/C=C/C(=O)O` (stereo not shown) [Example 56, (E)-4-(2-isopropyl-7-methyl-2,3-dihydrobenzo[1,4]oxazin-4-yl)-4-oxo-2-butenoic acid] are > 50 µM and ≥ 3 µM.
The corresponding values for `Cc1ccc2c(c1)N(C(=O)/C=C/C(=O)O)CC(C(C)C)O2` (stereo not shown) [Example 64, (E)-4-(2-isopropyl-6-methyl-2,3-dihydrobenzo[1,4]oxazin-4-yl)-4-oxo-2-butenoic acid] are > 50 µM and 0.3 to 3 µM.
The corresponding values for `Cc1ccc2c(c1)N(C(=O)/C=C/C(=O)O)CC(c1ccccc1)O2` (stereo not shown) [Example 65, (E)-4-(6-methyl-2-phenyl-2,3-dihydrobenzo[1,4]oxazin-4-yl)-4-oxo-2-butenoic acid] are > 50 µM and ≥ 3 µM.
Consider `CC(C)C1CN(C(=O)/C=C/C(=O)O)c2cc(Cl)ccc2O1` (stereo not shown) [Example 69, (E)-4-(6-chloro-2-isopropyl-2,3-dihydrobenzo[1,4]oxazin-4-yl)-4-oxo-2-butenoic acid], for which the IC50 on CYP2C9 was > 50 µM; at human URAT1 it was ≥ 3 µM.
Regarding `Cc1cc(C)c2c(c1)N(CCC(=O)O)C(=O)[C@H](C(C)C)O2` [Example 73, 3-((S)-2-isopropyl-6,8-dimethyl-3-oxo-2,3-dihydrobenzo[1,4]oxazin-4-yl)propionic acid], the results for the IC50 on CYP2C9 and on human URAT1 were > 50 µM and < 0.3 µM, respectively.
The corresponding values for `Cc1cc(C)c2c(c1)N(CCC(=O)O)C(=O)[C@@H](C(C)C)O2` [Example 74, 3-((R)-2-isopropyl-6,8-dimethyl-3-oxo-2,3-dihydrobenzo[1,4]oxazin-4-yl)propionic acid] are > 50 µM and < 0.3 µM.
Regarding `Cc1cc(Cl)cc2c1OC(C(C)C)CN2C(=O)/C=C/C(=O)O` (stereo not shown) [Example 83, (E)-4-(6-chloro-2-isopropyl-8-methyl-2,3-dihydrobenzo[1,4]oxazin-4-yl)-4-oxo-2-butenoic acid], the IC50 at CYP2C9 is > 50 µM; on human URAT1, 0.3 to 3 µM.
On the same counts, the results for `Cc1cc(Cl)cc2c1OC(c1ccccc1)CN2C(=O)/C=C/C(=O)O` (stereo not shown) [Example 84, (E)-4-(6-chloro-8-methyl-2-phenyl-2,3-dihydrobenzo[1,4]oxazin-4-yl)-4-oxo-2-butenoic acid] are > 50 µM and 0.3 to 3 µM.
The corresponding values for `Cc1cc(C)c2c(c1)N(CCC(=O)O)C(=O)[C@@H](CC(C)C)O2` [Example 91, 3-((R)-2-isobutyl-6,8-dimethyl-3-oxo-2,3-dihydrobenzo[1,4]oxazin-4-yl)propionic acid] are > 50 µM and < 0.3 µM.
The corresponding values for `Cc1c(Cl)cc2c(c1Cl)OC(C(C)C)C(=O)N2CCC(=O)O` (stereo not shown) [Example 94, 3-(6,8-dichloro-2-isopropyl-7-methyl-3-oxo-2,3-dihydrobenzo[1,4]oxazin-4-yl)propionic acid] are > 50 µM and < 0.3 µM.
For `CCc1cc(C)c2c(c1)N(CCC(=O)O)C(=O)C(C(C)C)O2` (stereo not shown) [Example 101, 3-(6-ethyl-2-isopropyl-8-methyl-3-oxo-2,3-dihydrobenzo[1,4]oxazin-4-yl)propionic acid], the IC50 on CYP2C9 was > 50 µM; at human URAT1 it was < 0.3 µM.
Take `CCCC1Oc2c(C)cc(C)cc2N(CCC(=O)O)C1=O` (stereo not shown) [Example 102, 3-(6,8-dimethyl-3-oxo-2-propyl-2,3-dihydrobenzo[1,4]oxazin-4-yl)propionic acid]: the IC50 was > 50 µM on CYP2C9 and < 0.3 µM at human URAT1.
The corresponding values for `CC[C@H](C)[C@H]1Oc2c(C)cc(C)cc2N(CCC(=O)O)C1=O` [Example 105, 3-[(R)-2-((S)-sec-butyl)-6,8-dimethyl-3-oxo-2,3-dihydrobenzo[1,4]oxazin-4-yl]propionic acid] are > 50 µM and < 0.3 µM.
Regarding `Cc1cc(Cl)c2c(c1)N(CCC(=O)O)C(=O)[C@@H](C(C)C)O2` [Example 106, 3-((R)-8-chloro-2-isopropyl-6-methyl-3-oxo-2,3-dihydrobenzo[1,4]oxazin-4-yl)propionic acid], the results for the IC50 on CYP2C9 and at human URAT1 were > 50 µM and < 0.3 µM, respectively.
The corresponding values for `Cc1cc(Cl)cc2c1O[C@H](C(C)C)C(=O)N2CCC(=O)O` [Example 107, 3-((R)-6-chloro-2-isopropyl-8-methyl-3-oxo-2,3-dihydrobenzo[1,4]oxazin-4-yl)propionic acid] are > 50 µM and < 0.3 µM.
As to `CC(C)[C@H]1Oc2c(Cl)cc(Cl)cc2N(CCC(=O)O)C1=O` [Example 108, 3-((R)-6,8-dichloro-2-isopropyl-3-oxo-2,3-dihydrobenzo[1,4]oxazin-4-yl)propionic acid], the results for the IC50 at CYP2C9 and at human URAT1 were > 50 µM and < 0.3 µM, respectively.
The corresponding values for `Cc1cc(Cl)c2c(c1)N(CCC(=O)O)C(=O)[C@H](C(C)C)O2` [Example 109, 3-((S)-8-chloro-2-isopropyl-6-methyl-3-oxo-2,3-dihydrobenzo[1,4]oxazin-4-yl)propionic acid] are > 50 µM and 0.3 to 3 µM.
On the same counts, the results for `Cc1cc(Cl)cc2c1O[C@@H](C(C)C)C(=O)N2CCC(=O)O` [Example 110, 3-((S)-6-chloro-2-isopropyl-8-methyl-3-oxo-2,3-dihydrobenzo[1,4]oxazin-4-yl)propionic acid] are > 50 µM and 0.3 to 3 µM.
In the case of `CC(C)[C@@H]1Oc2c(Cl)cc(Cl)cc2N(CCC(=O)O)C1=O` [Example 111, 3-((S)-6,8-dichloro-2-isopropyl-3-oxo-2,3-dihydrobenzo[1,4]oxazin-4-yl)propionic acid], the IC50 at CYP2C9 was > 50 µM; at human URAT1 it was 0.3 to 3 µM.

The values above are taken from patent publication US20070197512A1, “Carboxylic Acid Compounds and Use Thereof” (Japan Tobacco Inc., priority 2006, published 2007).
